# From patent US20230091047A1 (priority 2019, published 2023)
# Read-outs that look alike come from different tables or passages of the source.
# Assays:
# [1] = tested on: HepG2 cells; experiment: in vitro; type: cell-based
# Method in brief: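 Luminescent ATP quantitation served as the viability endpoint following a 3- or 4-day incubation with test compounds.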
# [2] = tested on: HBV (HepG2.117 cell line, inducibly HBV producing); experiment: Anti-HBV activity: intracellular HBV DNA by real-time PCR in HepG2.117 cells after 3 days of treatment; type: cell-based, hepatitis B virus
# Method in brief: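 HepG2.117 cells replicate HBV under Tet-off control, without doxycycline. After induction of replication, cells were treated with serially diluted compound for 3 days, and intracellular HBV DNA was then quantified by real-time PCR with an HBV-specific primer set and probe.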
# [3] = HepG2 or HepG2.117 cells, ATPlite, 3-days incubation (not marked with *), mean value, read-out: CC50 (μM, mean value)
# [4] = HepG2.117 cells, intracellular HBV DNA by real-time PCR, 3 days of treatment, mean value; read-out: EC50 (μM, mean value)
# [5] = 3-days incubation (unmarked values), HepG2 or HepG2.117 cells, ATPlite, mean value, read-out: CC50 (μM, mean value)
# [6] = HepG2.117 cells, 3 days of treatment, intracellular HBV DNA by real-time PCR; mean value; read-out: EC50 (μM, mean value)
# [7] = Hepatitis B virus, HepG2.117, 72 h, HepG2.117 cells, intracellular HBV DNA by real-time PCR, 3 days of treatment, mean value; read-out: EC50 (μM, mean value)
SMILES,"CC50 [1, 3]","EC50 [2, 4]",also measured
CNC(=O)c1ccc(-n2c(OC(C)C)nc3c(c2=O)C[C@@H](C)N(C(=O)c2ccc(Cl)c(Cl)c2)C3)c(Cl)c1 [Compound C403b],31.1 µM,0.08 µM,
"COc1ccc(CNc2nc3c(c(=O)n2-c2ccccc2OC)C[C@H](C)N(C(=O)c2ccc(Cl)c(Cl)c2)C3)cc1 (single isomer, unassigned) [Compound C36Ba]",,,"CC50 [1, 5]: > 50 µM; EC50 [2, 6]: 1.21 µM"
"CC(C)Nc1nc2c(c(=O)n1-c1ccc(-c3nccn3C)cc1Cl)C[C@@H](C)N(C(=O)c1ccc(Cl)c(Cl)c1)C2 (single isomer, unassigned) [Compound C392b]",26.7 µM,0.12 µM,
"Cc1cc(-n2cccn2)ccc1-n1c(NC(C)C)nc2c(c1=O)C[C@@H](C)N(C(=O)c1ccc(Cl)c(Cl)c1)C2 (single isomer, unassigned) [Compound C308b]",,,"CC50 [1, 5]: > 50 µM; EC50 [2, 6]: 0.16 µM"
"Cc1cc(-c2ncc[nH]2)ccc1-n1c(NC(C)C)nc2c(c1=O)C[C@@H](C)N(C(=O)c1ccc(Cl)c(Cl)c1)C2 (single isomer, unassigned) [Compound C399b]",27 µM,0.16 µM,
"CNC(=O)c1ccc(-n2c(NC(C)C)nc3c(c2=O)C[C@@H](C)N(C(=O)c2ccc(Cl)c(Cl)c2)C3)c(C(C)C)c1 (single isomer, unassigned) [Compound C420b]",23.5 µM,0.35 µM,
CNC(=O)c1ccc(-n2c(N[C@H](C)c3ccc(OC(F)F)cc3)nc3c(c2=O)C[C@@H](C)N(C(=O)c2ccc(Cl)c(Cl)c2)C3)cc1 [Compound C411b],42.1 µM,0.07 µM,
"COc1cc(C(=O)NC2CC2)ccc1-n1c(NC(C)C)nc2c(c1=O)C[C@@H](C)N(C(=O)c1ccc(Cl)c(C(F)(F)F)c1)C2 (single isomer, unassigned) [Compound C678b]",44.1 µM,0.04 µM,
"CC(C)Nc1nc2c(c(=O)n1-c1ccc(C(=O)NC3CC3)cc1Cl)C[C@@H](C)N(C(=O)c1ccc(Cl)c(C(F)(F)F)c1)C2 (single isomer, unassigned) [Compound C673b]",> 50 µM,0.03 µM,
"COc1ccc(CNc2nc3c(c(=O)n2-c2ccccc2OC)C[C@H](C)N(C(=O)c2ccc(Cl)c(Cl)c2)C3)cc1 (single isomer, unassigned) [Compound C36Bb]",,,"CC50 [1, 5]: > 50 µM; EC50 [2, 6]: > 50 µM"
"CC(C)Nc1nc2c(c(=O)n1-c1ccc(-c3ncc[nH]3)cc1Cl)C[C@@H](C)N(C(=O)c1ccc(Cl)c(Cl)c1)C2 (single isomer, unassigned) [Compound C393a]",14.1 µM,0.12 µM,
"CNC(=O)c1ccc(-n2c(NC(C)C)nc3c(c2=O)C[C@@H](C)N(C(=O)c2ccc(Cl)c(C(F)(F)F)c2)C3)c(Cl)c1 (single isomer, unassigned) [Compound C639b]",25.4 µM,0.02 µM,
"CNC(=O)c1ccc(-n2c(NC(C)C)nc3c(c2=O)C[C@@H](C)N(C(=O)c2ccc(Cl)c(C(F)(F)F)c2)C3)c(C2CC2)c1 (single isomer, unassigned) [Compound C661b]",25.4 µM,0.06 µM,
CNC(=O)c1ccc(-n2c(NCc3nc(-c4ccccc4)n[nH]3)nc3c(c2=O)C[C@@H](C)N(C(=O)c2ccc(Cl)c(Cl)c2)C3)cc1 [Compound C538],> 50 µM,20.6 µM,
"CC(C)Nc1nc2c(c(=O)n1-c1ccc(-c3ncc[nH]3)cc1Cl)C[C@@H](C)N(C(=O)c1ccc(Cl)c(Cl)c1)C2 (single isomer, unassigned) [Compound C393b]",31.7 µM,0.24 µM,
"COc1ccccc1-n1c(N[C@@H](C)CO)nc2c(c1=O)CCN(C(=O)c1ccc(Cl)c(Cl)c1)C2 (single isomer, unassigned) [Compound C62Bb, 7-(3,4-dichlorobenzoyl)-2-{[(2*S)-1-hydroxypropan-2-yl]amino}-3-(2-methoxyphenyl)-5,6,7,8-tetrahydropyrido[3,4-d]pyrimidin-4(3H)-one]",,,"CC50 [1, 5]: > 50 µM; EC50 [2, 6]: 6.6 µM"
CNC(=O)c1ccc(-n2c(N[C@@H](C)C3CC3)nc3c(c2=O)C[C@@H](C)N(C(=O)c2ccc(Cl)c(Cl)c2)C3)c(Cl)c1 [Compound C387],38 µM,0.06 µM,
"CNC(=O)c1ccc(-n2c(NC(C)C)nc3c(c2=O)C[C@@H](C)N(C(=O)c2ccc(Cl)c(Cl)c2)C3)c(OC)c1 (single isomer, unassigned) [Compound C314b]",,,"CC50 [1, 5]: > 50 µM; EC50 [2, 6]: 0.22 µM"
"COc1ccc([C@H](C)Nc2nc3c(c(=O)n2-c2ccc(NC(C)=O)cc2)C[C@@H](C)N(C(=O)c2ccc(Cl)c(Cl)c2)C3)cc1 (single isomer, unassigned) [Compound C410a]",> 50 µM,0.95 µM,
"CNC(=O)c1ccc(-n2c(N3CC4CC3C4)nc3c(c2=O)C[C@@H](C)N(C(=O)c2ccc(Cl)c(C(F)(F)F)c2)C3)c(Cl)c1 (single isomer, unassigned) [Compound C701b]",,,"CC50 ([1]; 3-days incubation (unmarked values), HepG2 or HepG2.117 cells, ATPlite viability, mean value, read-out: CC50 (μM, mean value)): 25.4 µM; EC50 [2, 6]: 0.03 µM"
"CNC(=O)[C@H]1CC[C@@H](n2c(N[C@H](C)c3ccc(OC(F)(F)F)cc3)nc3c(c2=O)C[C@@H](C)N(C(=O)c2ccc(Cl)c(Cl)c2)C3)CC1 [Compound C636, (1R,4s)-4-((R)-7-(3,4-dichlorobenzoyl)-6-methyl-4-oxo-2-(((S)-1-(4-(trifluoromethoxy)phenyl)ethyl)amino)-5,6,7,8-tetrahydropyrido[3,4-d]pyrimidin-3(4H)-yl)-N-methylcyclohexane-1-carboxamide]",,0.23 µM,CC50 [1]: > 35 µM
"Cc1c[nH]c(-c2ccc(-n3c(NC(C)C)nc4c(c3=O)C[C@@H](C)N(C(=O)c3ccc(Cl)c(Cl)c3)C4)c(Cl)c2)n1 (single isomer, unassigned) [Compound C455b]",> 50 µM,0.1 µM,
"Cc1c[nH]c(-c2ccc(-n3c(NC(C)C)nc4c(c3=O)C[C@@H](C)N(C(=O)c3ccc(Cl)c(Cl)c3)C4)c(Cl)c2)n1 (single isomer, unassigned) [Compound C455a]",17.6 µM,,"EC50 [2, 7]: 0.05 µM"
"CNC(=O)c1ccc(-n2c(N[C@@H](C)c3ccccc3)nc3c(c2=O)C[C@@H](C)N(C(=O)c2ccc(Cl)c(Cl)c2)C3)c(Cl)c1 (single isomer, unassigned) [Compound C386b]",> 50 µM,0.1 µM,
"CCc1cc(C(=O)NC)ccc1-n1c(NC(C)C)nc2c(c1=O)C[C@@H](C)N(C(=O)c1ccc(Cl)c(Cl)c1)C2 (single isomer, unassigned) [Compound C383b]",> 45 µM,0.17 µM,
"Cc1cc(-n2cccn2)ccc1-n1c(NC(C)C)nc2c(c1=O)C[C@@H](C)N(C(=O)c1ccc(Cl)c(Cl)c1)C2 (atropisomer, axis not shown) [Compound C308a, (6R)-7-(3,4-dichlorobenzoyl)-6-methyl-3-[2-methyl-4-(1H-pyrazol-1-yl)phenyl]-2-[(propan-2-yl)amino]-5,6,7,8-tetrahydropyrido[3,4-d]pyrimidin-4(3H)-one]",,,"CC50 [1, 5]: > 50 µM; EC50 [2, 6]: 0.11 µM"
"CNC(=O)c1ccc(-n2c(NC(C)C)nc3c(c2=O)C[C@@H](C)N(C(=O)c2ccc(Cl)c(C(F)(F)F)c2)C3)c(OC)c1 (single isomer, unassigned) [Compound C643a]",> 50 µM,0.04 µM,
"CC(C)Nc1nc2c(c(=O)n1-c1ccc(S(C)(=O)=O)cc1)C[C@@H](C)N(C(=O)c1ccc(Cl)c(Cl)c1)C2 [Compound C142, (6R)-7-(3,4-dichlorobenzoyl)-3-[4-(methanesulfonyl)phenyl]-6-methyl-2-[(propan-2-yl)amino]-5,6,7,8-tetrahydropyrido[3,4-d]pyrimidin-4(3H)-one]",,,"CC50 [1, 5]: > 50 µM; EC50 [2, 6]: 0.12 µM"
CC(C)Nc1nc2c(c(=O)n1-c1ccc(-c3ncc[nH]3)cc1Cl)C[C@@H](C)N(C(=O)c1ccc(Cl)c(Cl)c1)C2 [Compound C393],24.1 µM,,"EC50 [2, 7]: 0.17 µM"
